Assay results: US12077503B2, “Substituted cyclic amides and their use as herbicides” (FMC CORPORATION, priority 2015, dated 2024)

Experiments:
Test in all cases: Test C preemergence
Type in all cases: in vivo
[1] = tested on: Galium (catchweed bedstraw, Galium aparine); details: for Plant response rating, Galium: scale 0 to 100, 0 no effect, 100 complete control
How it was run: (§1)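 Preemergence application to seeds in loam/sand soil, or foliar (postemergence) application to plants 2–18 cm tall in peat moss/vermiculite medium; surfactant-containing non-phytotoxic solvent vehicle; greenhouse. Visual injury vs controls at 13–15 d; 0 = no effect, 100 = complete control.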

[2] = tested on: barnyardgrass (Echinochloa crus-galli); details: for Plant response rating, Barnyardgrass: scale 0 to 100, 0 no effect, 100 complete control
How it was run: as §1

[3] = tested on: blackgrass (Alopecurus myosuroides); details: for Plant response rating, Blackgrass: scale 0 to 100, 0 no effect, 100 complete control
How it was run: as §1

[4] = tested on: corn (Zea mays); details: for Plant response rating, Corn: scale 0 to 100, 0 no effect, 100 complete control
How it was run: as §1

[5] = tested on: crabgrass, large (large crabgrass, Digitaria sanguinalis); details: for Plant response rating, Crabgrass, Large: scale 0 to 100, 0 no effect, 100 complete control
How it was run: as §1

[6] = tested on: foxtail, giant (giant foxtail, Setaria faberii); details: for Plant response rating, Foxtail, Giant: scale 0 to 100, 0 no effect, 100 complete control
How it was run: as §1

[7] = tested on: johnsongrass (Sorghum halepense); details: for Plant response rating, Johnsongrass: scale 0 to 100, 0 no effect, 100 complete control
How it was run: as §1

[8] = tested on: lambsquarters (Chenopodium album); details: for Plant response rating, Lambsquarters: scale 0 to 100, 0 no effect, 100 complete control
How it was run: as §1

[9] = tested on: morningglory (Ipomoea coccinea); details: for Plant response rating, Morningglory: scale 0 to 100, 0 no effect, 100 complete control
How it was run: as §1

[10] = tested on: nutsedge, yellow (yellow nutsedge, Cyperus esculentus); details: for Plant response rating, Nutsedge, Yellow: scale 0 to 100, 0 no effect, 100 complete control
How it was run: as §1

[11] = tested on: oilseed rape (Brassica napus); details: for Plant response rating, Oilseed Rape: scale 0 to 100, 0 no effect, 100 complete control
How it was run: as §1

[12] = tested on: pigweed (Amaranthus retroflexus); details: for Plant response rating, Pigweed: scale 0 to 100, 0 no effect, 100 complete control
How it was run: as §1

[13] = tested on: ragweed (common ragweed, Ambrosia elatior); details: for Plant response rating, Ragweed: scale 0 to 100, 0 no effect, 100 complete control
How it was run: as §1

[14] = tested on: ryegrass, Italian (Italian ryegrass, Lolium multiflorum); details: for Plant response rating, Ryegrass, Italian: scale 0 to 100, 0 no effect, 100 complete control
How it was run: as §1

[15] = tested on: soybean (Glycine max); details: for Plant response rating, Soybean: scale 0 to 100, 0 no effect, 100 complete control
How it was run: as §1

[16] = tested on: velvetleaf (Abutilon theophrasti); details: for Plant response rating, Velvetleaf: scale 0 to 100, 0 no effect, 100 complete control
How it was run: as §1

[17] = tested on: wheat (winter wheat, Triticum aestivum); details: for Plant response rating, Wheat: scale 0 to 100, 0 no effect, 100 complete control
How it was run: as §1

[18] = 31 g ai/ha, 0 is no effect, 100 is complete control

SMILES: O=C1NCC(c2cccc(OC(F)(F)C(F)F)c2)C1C(=O)Nc1ccc(F)c(F)c1F (racemic) [Compound 698]
- Plant response rating (scale of 0 to 100), Galium [1, 18]: 100
- Plant response rating, Galium ([1]; 62 g ai/ha): 90
- Plant response rating, Galium ([1]; 125 g ai/ha): 100
- Plant response rating, Galium ([1]; 250 g ai/ha): 90
- Plant response rating (scale of 0 to 100), Barnyardgrass [2, 18]: 75
- Plant response rating, Barnyardgrass ([2]; 62 g ai/ha): 90
- Plant response rating, Barnyardgrass ([2]; 125 g ai/ha): 90
- Plant response rating, Barnyardgrass ([2]; 250 g ai/ha): 90
- Plant response rating (scale of 0 to 100), Blackgrass [3, 18]: 0
- Plant response rating, Blackgrass ([3]; 62 g ai/ha): 0
- Plant response rating, Blackgrass ([3]; 125 g ai/ha): 50
- Plant response rating, Blackgrass ([3]; 250 g ai/ha): 70
- Plant response rating (scale of 0 to 100), Corn [4, 18]: 40
- Plant response rating, Corn ([4]; 62 g ai/ha): 70
- Plant response rating, Corn ([4]; 125 g ai/ha): 80
- Plant response rating, Corn ([4]; 250 g ai/ha): 80
- Plant response rating (scale of 0 to 100), Crabgrass, Large [5, 18]: 90
- Plant response rating, Crabgrass, Large ([5]; 62 g ai/ha): 90
- Plant response rating, Crabgrass, Large ([5]; 125 g ai/ha): 95
- Plant response rating, Crabgrass, Large ([5]; 250 g ai/ha): 95
- Plant response rating (scale of 0 to 100), Foxtail, Giant [6, 18]: 85
- Plant response rating, Foxtail, Giant ([6]; 62 g ai/ha): 90
- Plant response rating, Foxtail, Giant ([6]; 125 g ai/ha): 85
- Plant response rating, Foxtail, Giant ([6]; 250 g ai/ha): 90
- Plant response rating (scale of 0 to 100), Johnsongrass [7, 18]: 75
- Plant response rating, Johnsongrass ([7]; 62 g ai/ha): 75
- Plant response rating, Johnsongrass ([7]; 125 g ai/ha): 80
- Plant response rating, Johnsongrass ([7]; 250 g ai/ha): 85
- Plant response rating (scale of 0 to 100), Lambsquarters [8, 18]: 10
- Plant response rating, Lambsquarters ([8]; 62 g ai/ha): 35
- Plant response rating, Lambsquarters ([8]; 125 g ai/ha): 70
- Plant response rating, Lambsquarters ([8]; 250 g ai/ha): 80
- Plant response rating (scale of 0 to 100), Morningglory [9, 18]: 0
- Plant response rating, Morningglory ([9]; 62 g ai/ha): 0
- Plant response rating, Morningglory ([9]; 125 g ai/ha): 20
- Plant response rating, Morningglory ([9]; 250 g ai/ha): 25
- Plant response rating (scale of 0 to 100), Nutsedge, Yellow [10, 18]: 0
- Plant response rating, Nutsedge, Yellow ([10]; 62 g ai/ha): 0
- Plant response rating, Nutsedge, Yellow ([10]; 125 g ai/ha): 0
- Plant response rating, Nutsedge, Yellow ([10]; 250 g ai/ha): 0
- Plant response rating (scale of 0 to 100), Oilseed Rape [11, 18]: 0
- Plant response rating, Oilseed Rape ([11]; 62 g ai/ha): 30
- Plant response rating, Oilseed Rape ([11]; 125 g ai/ha): 80
- Plant response rating, Oilseed Rape ([11]; 250 g ai/ha): 85
- Plant response rating (scale of 0 to 100), Pigweed [12, 18]: 75
- Plant response rating, Pigweed ([12]; 62 g ai/ha): 85
- Plant response rating, Pigweed ([12]; 125 g ai/ha): 90
- Plant response rating, Pigweed ([12]; 250 g ai/ha): 90
- Plant response rating (scale of 0 to 100), Ragweed [13, 18]: 70
- Plant response rating, Ragweed ([13]; 62 g ai/ha): 40
- Plant response rating, Ragweed ([13]; 125 g ai/ha): 40
- Plant response rating, Ragweed ([13]; 250 g ai/ha): 55
- Plant response rating (scale of 0 to 100), Ryegrass, Italian [14, 18]: 0
- Plant response rating, Ryegrass, Italian ([14]; 62 g ai/ha): 0
- Plant response rating, Ryegrass, Italian ([14]; 125 g ai/ha): 0
- Plant response rating, Ryegrass, Italian ([14]; 250 g ai/ha): 30
- Plant response rating (scale of 0 to 100), Soybean [15, 18]: 35
- Plant response rating, Soybean ([15]; 62 g ai/ha): 0
- Plant response rating, Soybean ([15]; 125 g ai/ha): 0
- Plant response rating, Soybean ([15]; 250 g ai/ha): 0
- Plant response rating (scale of 0 to 100), Velvetleaf [16, 18]: 25
- Plant response rating, Velvetleaf ([16]; 62 g ai/ha): 40
- Plant response rating, Velvetleaf ([16]; 125 g ai/ha): 50
- Plant response rating, Velvetleaf ([16]; 250 g ai/ha): 65
- Plant response rating (scale of 0 to 100), Wheat [17, 18]: 0
- Plant response rating, Wheat ([17]; 62 g ai/ha): 0
- Plant response rating, Wheat ([17]; 125 g ai/ha): 0
- Plant response rating, Wheat ([17]; 250 g ai/ha): 30
